Measurements: the supplement of paper PMC11061612

Columns and labels:
[1] = compound: C=CCn1c(=O)c2cnc(Nc3ccc(N4CCN(C)CC4)cc3)nc2n1-c1cccc(C(C)(C)O)n1 [AZD1775]
How it was run: (§1)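 Cancer cell lines in 1536-well plates (7.5 μl DMEM/F12 or RPMI, 10% FBS) were held 24 hours at 37°C and 5% CO2 and then dosed for 72 hours at a final DMSO of typically 0.2%. Viability was taken from CellTiter-Glo 2.0 luminescence, scaled between blank-well and DMSO-well means. Curves were fitted as two-parameter logistic models with a non-linear mixed effects model, from which the single-agent IC50 was taken.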

[2] = compound: C[C@@H](Oc1cc(-c2cnn(C3CCNCC3)c2)cnc1N)c1c(Cl)ccc(F)c1Cl [Crizotinib]; details: max 10 µM
How it was run: as §1

[3] = compound: COc1cc2ncnc(Nc3ccc(F)c(Cl)c3)c2cc1OCCCN1CCOCC1 [Gefitinib]; details: max 10 µM
How it was run: as §1

[4] = compound: COc1cccc(OCCCN)c1-c1cc(Nc2cnc(C#N)cn2)n[nH]1 [Prexasertib]; details: max 1 µM
How it was run: as §1

[5] = compound: CCN(CCO)CCCOc1ccc2c(Nc3cc(CC(=O)Nc4cccc(F)c4)[nH]n3)ncnc2c1 [AZD2811]; details: max 1 µM
How it was run: as §1

[6] = compound: CS(=O)(=O)CCNCc1ccc(-c2ccc3ncnc(Nc4ccc(OCc5cccc(F)c5)c(Cl)c4)c3c2)o1 [Lapatinib]; details: max 10 µM
How it was run: as §1

[7] = compound: CC1=C(C(=CC=C1)Cl)NC(=O)C2=CN=C(S2)NC3=CC(=NC(=N3)C)N4CCN(CC4)CCO [Dasatinib]; details: max 2 µM
How it was run: as §1

[8] = compound: CC(=O)c1c(C)c2cnc(Nc3ccc(N4CCNCC4)cn3)nc2n(C2CCCC2)c1=O [Palbociclib]; details: max 10 µM
How it was run: as §1

[9] = compound: CC(C)n1c(=O)n(C)c2cnc3cc(F)c(-c4ccc(OCCCN5CCCCC5)nc4)cc3c21 [AZD1390]; details: max 0.3 µM
How it was run: as §1

[10] = compound: C1CN(CCC1(C(=O)N[C@@H](CCO)C2=CC=C(C=C2)Cl)N)C3=NC=NC4=C3C=CN4 [Capivasertib]; details: max 10 µM
How it was run: as §1

[11] = compound: Cc1cc2ncnn2cc1Nc1ncc2c(n1)n(C1CCOCC1)c(=O)n2C [AZD7648]; details: max 10 µM
How it was run: as §1

[12] = compound: Cn1cnc2c(F)c(Nc3ccc(Br)cc3Cl)c(C(=O)NOCCO)cc21 [Selumetinib]; details: max 10 µM
How it was run: as §1

[13] = compound: COc1cc(Nc2ncc3c(n2)-c2ccc(Cl)cc2C(c2c(F)cccc2OC)=NC3)ccc1C(=O)O [Alisertib]; details: max 10 µM
How it was run: as §1

[14] = compound: COc1nnc2ccc(N3CCC(c4ccc(OCCN5CCN(C)C(=O)[C@H]5C)cc4)CC3)nn12 [AZD5153]; details: max 1 µM
How it was run: as §1

[15] = compound: CC(=O)Nc1cccc(-n2c(=O)n(C3CC3)c(=O)c3c(Nc4ccc(I)cc4F)n(C)c(=O)c(C)c32)c1 [Trametinib]; details: max 1 µM
How it was run: as §1

[16] = compound: Cc1nc(-c2cn3c(n2)-c2ccc(-c4cnn(C(C)(C)C(N)=O)c4)cc2OCC3)n(C(C)C)n1 [Taselisib]; details: max 10 µM
How it was run: as §1

[17] = compound: CN(C)CCCOc1ccc(-c2ccc3ncc4c(c3c2)n(C2CCOCC2)c(=O)n4C)cn1 [AZD0156]
How it was run: as §1

[18] = compound: C[C@@H]1COCCN1C2=NC(=NC(=C2)C3(CC3)[S@](=N)(=O)C)C4=C5C=CNC5=NC=C4 [AZD6738]; details: max 10 µM
How it was run: as §1

[19] = compound: CCc1c2c(nc3ccc(O)cc13)-c1cc3c(c(=O)n1C2)COC(=O)[C@]3(O)CC [SN-38]; details: max 0.3 µM
How it was run: as §1

[20] = compound: CC1(C)CCC(CN2CCN(c3ccc(C(=O)NS(=O)(=O)c4ccc(NCC5CCOCC5)c([N+](=O)[O-])c4)c(Oc4cnc5[nH]ccc5c4)c3)CC2)=C(c2ccc(Cl)cc2)C1 [Venetoclax]; details: max 1 µM
How it was run: as §1

[21] = compound: COc1cccc2c1C(=O)c1c(O)c3c(c(O)c1C2=O)C[C@@](O)(C(=O)CO)C[C@@H]3O[C@H]1C[C@H](N)[C@H](O)[C@H](C)O1 [Doxorubicin]; details: max 1 µM
How it was run: as §1

[22] = compound: CN(CC[C@H](CSC1=CC=CC=C1)NC2=C(C=C(C=C2)S(=O)(=O)NC(=O)C3=CC=C(C=C3)N4CCC(CC4)[C@H](C5=CC=CC=C5C6=CC=C(C=C6)Cl)O)S(=O)(=O)C(F)(F)F)CCO [AZD4320]; details: max 1 µM
How it was run: as §1

[23] = compound: C[C@@H](c1ccc2nccn2c1)n1nnc2ncc(-c3cnn(C)c3)nc21 [Savolitinib]; details: max 1 µM
How it was run: as §1

[24] = compound: C[C@@H](Nc1cc(F)cc(F)c1)c1cc(C(=O)N(C)C)cc2c(=O)cc(N3CCOCC3)oc12 [AZD8186]; details: max 3 µM
How it was run: as §1

[25] = compound: O=C(c1cc(Cc2n[nH]c(=O)c3ccccc23)ccc1F)N1CCN(C(=O)C2CC2)CC1 [Olaparib]; details: max 10 µM
How it was run: as §1

[26] = compound: Cc1c2c(nn1C)CSCc1cc(n(C)n1)CSc1cc(c3ccccc3c1)OCCCc1c(C(=O)O)n(C)c3c-2c(Cl)ccc13 [AZD5991]; details: max 1 µM
How it was run: as §1

[27] = compound: CC1=CN2[C@@H](C1)C=NC3=CC(=C(C=C3C2=O)OC)OCCCCCOC4=C(C=C5C(=C4)N=C[C@@H]6CC(=CN6C5=O)C)OC [SG3199]; details: max 0.001 µM
How it was run: as §1

| Cell Line | IC50, cell viability 72 h ([1]; max 3 µM) | IC50, cell viability 72 h [2] | IC50, cell viability 72 h [3] | IC50, cell viability 72 h [4] | IC50, cell viability 72 h [5] | IC50, cell viability 72 h [6] | IC50, cell viability 72 h [7] | IC50, cell viability 72 h [8] | IC50, cell viability 72 h [9] | IC50, cell viability 72 h [10] | IC50, cell viability 72 h [11] | IC50, cell viability 72 h [12] | IC50, cell viability 72 h [13] | IC50, cell viability 72 h [14] | IC50, cell viability 72 h [15] | IC50, cell viability 72 h [16] | IC50, cell viability 72 h ([17]; max 3 µM) | IC50, cell viability 72 h [18] | IC50, cell viability 72 h [19] | IC50, cell viability 72 h [20] | IC50, cell viability 72 h [21] | IC50, cell viability 72 h [22] | IC50, cell viability 72 h [23] | IC50, cell viability 72 h [24] | IC50, cell viability 72 h [25] | IC50, cell viability 72 h [26] | IC50, cell viability 72 h [27] | IC50, cell viability 72 h ([1]; max 1 µM) | IC50, cell viability 72 h ([17]; max 1 µM) |
| --- | --- | --- | --- | --- | --- | --- | --- | --- | --- | --- | --- | --- | --- | --- | --- | --- | --- | --- | --- | --- | --- | --- | --- | --- | --- | --- | --- | --- | --- |
| A704 (Kidney Carcinoma) | 2.51 µM | > 10 µM | > 10 µM | > 1 µM | > 1 µM | 8.79 µM | 0.11 µM | > 10 µM | > 0.3 µM | > 10 µM | > 10 µM | > 10 µM | 5.35 µM | 0.538 µM | > 1 µM | > 10 µM | > 3 µM | > 10 µM | 0.274 µM | > 1 µM | > 1 µM | > 1 µM | > 1 µM | 1.54 µM | > 10 µM | > 1 µM | > 0.001 µM |  |  |
| BT-20 (Breast Carcinoma) | 1.44 µM | > 10 µM | > 10 µM | 0.319 µM | > 1 µM | > 10 µM | > 2 µM | > 10 µM | > 0.3 µM | 1.21 µM | > 10 µM | > 10 µM | 9.86 µM | > 1 µM | 0.202 µM | 0.297 µM | > 3 µM | > 10 µM | 0.0577 µM | > 1 µM | > 1 µM | > 1 µM | > 1 µM | > 3 µM | > 10 µM | > 1 µM | > 0.001 µM |  |  |
| BV-173 (Chronic Myelogenous Leukemia) | 0.294 µM | 0.497 µM | > 10 µM | 0.00479 µM | 0.00695 µM | 4.02 µM | < 0.002 µM | 3.94 µM | > 0.3 µM | 4.14 µM | > 10 µM | 2.33 µM | 0.0385 µM | 0.0651 µM | 0.0572 µM | > 10 µM | > 3 µM | 0.26 µM | 0.00142 µM | 0.0504 µM | 0.0465 µM | 0.00526 µM | > 1 µM | > 3 µM | 3.25 µM | 0.0306 µM | > 0.001 µM |  |  |
| DG-75 (Burkitt's Lymphoma) | 0.424 µM | 6.98 µM | > 10 µM | 0.0335 µM | > 1 µM | 8.87 µM | > 2 µM | 1.25 µM | > 0.3 µM | > 10 µM | > 10 µM | > 10 µM | > 10 µM | 0.0244 µM | > 1 µM | > 10 µM | > 3 µM | 1.39 µM | 0.0387 µM | > 1 µM | 0.453 µM | > 1 µM | > 1 µM | > 3 µM | > 10 µM | > 1 µM | > 0.001 µM |  |  |
| EBC-1 (Squamous Cell Lung Carcinoma) | 2.94 µM | 0.059 µM | > 10 µM | 0.596 µM | > 1 µM | > 10 µM | > 2 µM | > 10 µM | > 0.3 µM | > 10 µM | > 10 µM | 1.1 µM | > 10 µM | 0.0805 µM | 0.0239 µM | 5.25 µM | > 3 µM | > 10 µM | 0.00358 µM | > 1 µM | > 1 µM | 0.585 µM | 0.00407 µM | > 3 µM | > 10 µM | > 1 µM | > 0.001 µM |  |  |
| EMC-BAC-2 (Non-Small Cell Lung Carcinoma) | > 3 µM | > 10 µM | > 10 µM | > 1 µM | > 1 µM | > 10 µM | 0.995 µM | > 10 µM | > 0.3 µM | > 10 µM | > 10 µM | > 10 µM | 5.48 µM | 0.22 µM | 0.198 µM | 2.32 µM | > 3 µM | > 10 µM | 0.169 µM | > 1 µM | 0.959 µM | > 1 µM | > 1 µM | > 3 µM | > 10 µM | 0.873 µM | > 0.001 µM |  |  |
| EW-13 (Ewing's Sarcoma) |  | > 10 µM | > 10 µM | 0.829 µM | > 1 µM | > 10 µM | > 2 µM | > 10 µM | > 0.3 µM | > 10 µM | > 10 µM | > 10 µM | > 10 µM | > 1 µM | > 1 µM | > 10 µM |  | > 10 µM | 0.00864 µM | > 1 µM | 0.467 µM | 0.27 µM | > 1 µM | > 3 µM | > 10 µM | > 1 µM | > 0.001 µM | > 1 µM | > 1 µM |
| EW-18 (Ewing's Sarcoma) | 0.359 µM | 1.85 µM | > 10 µM | 0.0432 µM | 0.131 µM | > 10 µM | > 2 µM | > 10 µM | > 0.3 µM | 2.44 µM | > 10 µM | > 10 µM | 0.853 µM | 0.376 µM | > 1 µM | 1.24 µM | > 3 µM | 3.99 µM | 0.106 µM | > 1 µM | > 1 µM | 0.0454 µM | > 1 µM | > 3 µM | > 10 µM | 0.06 µM | > 0.001 µM |  |  |
